Measured values published in patent publication US20090030024A1, “THIAZOLES AS FUNGICIDES” (priority 2005, published 2009).
Marks after values point to notes of the source that are not given here.

assay: logP determination by retention times (calibration with alkan-2-ones); details: not given

| SMILES | chromatographic logP |
| --- | --- |
| Cc1nc(C2CCCCC2)sc1-c1ccnc(Nc2ccccc2)n1 [Example 219, 4-(2-cyclohexyl-4-methyl-1,3-thiazol-5-yl)-N-phenylpyrimidine-2-amine] | 4.65 |
| COCc1nc(C)c(-c2ccnc(Nc3cccc(C(C)=O)c3)n2)s1 [Example 24, 1-[3-({4-[2-(methoxymethyl)-4-methyl-1,3-thiazol-5-yl]pyrimidin-2-yl}amino)phenyl]ethanone] | 2.38 |
| Cc1nc(C(C)C)sc1-c1ccnc(Nc2ccc(N(C)C)c(Cl)c2)n1 [Example 64, 2-chloro-N4-[4-(2-isopropyl-4-methyl-1,3-thiazol-5-yl)pyrimidin-2-yl]-N1,N1-dimethylbenzene-1,4-diamine] | 2.72 |
| Cc1nc(C2CC2)sc1-c1ccnc(Nc2cccc([N+](=O)[O-])c2)n1 [Example 225, 4-(2-cyclopropyl-4-methyl-1,3-thiazol-5-yl)-N-(3-nitrophenyl)pyrimidine-2-amine] | 3.29 |
| Cc1nc(C(F)(F)F)c(-c2ccnc(Nc3ccccc3)n2)s1 [Example 312, 4-[2-methyl-4-(trifluoromethyl)-1,3-thiazol-5-yl]-N-phenylpyrimidine-2-amine] | 3.45 |
| Cc1nc(C(C)C)sc1-c1ccnc(Nc2ccc(N3CCN(C)CC3)cc2)n1 [Example 249, 4-(2-isopropyl-4-methyl-1,3-thiazol-5-yl)-N-[4-(4-methylpiperazin-1-yl)phenyl]pyrimidine-2-amine] | 1.71 |
| Cc1nc(C2CC2)sc1-c1ccnc(Nc2ccc3c(c2)OCCO3)n1 [Example 220, 4-(2-cyclopropyl-4-methyl-1,3-thiazol-5-yl)-N-(2,3-dihydro-1,4-benzodioxin-6-yl)pyrimidine-2-amine] | 2.91 |
| CCOC(=O)c1cccc(Nc2nccc(-c3sc(C4CC4)nc3C)n2)c1 [Example 374, ethyl-3-{[4-(2-cyclopropyl-4-methyl-1,3-thiazol-5-yl)pyrimidin-2-yl]amino}benzoate] | 3.56 |
| Cc1nc(C2CCCCC2)sc1-c1ccnc(Nc2cccc([N+](=O)[O-])c2)n1 [Example 216, 4-(2-cyclohexyl-4-methyl-1,3-thiazol-5-yl)-N-(3-nitrophenyl)pyrimidine-2-amine] | 4.63 |

same assay, conditions: * HPLC reversed-phase C18, 40° C., mobile phase 0.1% aqueous formic acid and acetonitrile, linear gradient 10% to 95% acetonitrile

| SMILES | logP |
| --- | --- |
| CN(C)c1nc(C(F)(F)F)c(-c2ccnc(Nc3ccc(N(C)C)c(Cl)c3)n2)s1 [Example 701, 2-chloro-N4-{4-[2-(dimethylamine)-4-(trifluoromethyl)-1,3-thiazol-5-yl]pyrimidin-2-yl}-N1,N1-dimethylbenzene-1,4-diamine] | 3.46* |
| Cc1nc(N(C)C)sc1-c1ccnc(Nc2ccc3c(c2)OC(F)(F)C(F)(F)O3)n1 [Example 774, 4-[2-(dimethylamine)-4-methyl-1,3-thiazol-5-yl]-N-(2,2,3,3-tetrafluoro-2,3-dihydro-1,4-benzodioxin-6-yl)pyrimidine-2-amine] | 3.6* |
| CN(C)c1nc(C(F)(F)F)c(-c2ccnc(Nc3ccc4c(c3)OCO4)n2)s1 [Example 704, N-1,3-benzodioxol-5-yl-4-[2-(dimethylamine)-4-(trifluoromethyl)-1,3-thiazol-5-yl]pyrimidine-2-amine] | 3.63* |

same assay, conditions: HPLC, reversed-phase C 18, EEC Directive 79/831 Annex V.A8; method *: 40° C., 0.1% aqueous formic acid and acetonitrile, linear gradient 10% to 95% acetonitrile

| SMILES | logP |
| --- | --- |
| COc1cc(Nc2nccc(-c3sc(N(C)C)nc3C(F)(F)F)n2)cc(OC)c1OC [Example 291, 4-[2-(dimethylamine)-4-(trifluoromethyl)-1,3-thiazol-5-yl]-N-(3,4,5-trimethoxyphenyl)pyrimidine-2-amine] | 3.43* |
| CNc1nc(C)c(-c2ccnc(Nc3cccc(C(C)=O)c3)n2)s1 [Example 27, 1-[3-({4-[4-methyl-2-(methylamine)-1,3-thiazol-5-yl]pyrimidin-2-yl}amino)phenyl]ethanone] | 1.62* |
| CNc1nc(C)c(-c2ccnc(Nc3cc(OC)c(OC)c(OC)c3)n2)s1 [Example 313, 4-[4-methyl-2-(methylamine)-1,3-thiazol-5-yl]-N-(3,4,5-trimethoxyphenyl)pyrimidine-2-amine] | 1.53* |
| Cc1nc2c(s1)-c1nc(Nc3ccc(O)cc3)ncc1CC2 [Example 281, 4-[(2-methyl-4,5-dihydro[1,3]thiazole[4,5-h]quinazolin-8-yl)amino]phenol] | 1.41* |

same assay, conditions: logP(HCOOH), HCOOH

| SMILES | chromatographic logP |
| --- | --- |
| Cc1nc(C2CCCCC2)sc1-c1ccnc(Nc2cccc([N+](=O)[O-])c2)n1 [Example 216, 4-(2-cyclohexyl-4-methyl-1,3-thiazol-5-yl)-N-(3-nitrophenyl)pyrimidine-2-amine] | 4.63 |

same assay, conditions: logP, * HPLC reversed-phase C18, 40° C., mobile phase 0.1% aqueous formic acid and acetonitrile, linear gradient 10% to 95% acetonitrile

| SMILES | chromatographic logP |
| --- | --- |
| Cc1nc(C(F)(F)F)c(-c2ccnc(Nc3ccc(O)cc3)n2)s1 [Example 696, 4-({4-[2-methyl-4-(trifluoromethyl)-1,3-thiazol-5-yl]pyrimidin-2-yl}amino)phenol] | 2.39 |
| CCc1nc(C)c(-c2ccnc(Nc3ccc(F)cc3F)n2)s1 [Example 760, N-(2,4-difluorophenyl)-4-(2-ethyl-4-methyl-1,3-thiazol-5-yl)pyrimidine-2-amine] | 3.27 |
| COCc1nc(C)c(-c2ccnc(Nc3ccc(F)cc3)n2)s1 [Example 486, N-(4-fluorophenyl)-4-[2-(methoxymethyl)-4-methyl-1,3-thiazol-5-yl]pyrimidine-2-amine] | 2.8 |
| CSc1nc(C)c(-c2ccnc(Nc3ccc(N(C)C)cc3)n2)s1 [Example 524, N,N-dimethyl-N′-{4-[4-methyl-2-(methylthio)-1,3-thiazol-5-yl]pyrimidin-2-yl}benzene-1,4-diamine] | 1.75 |
| COCC(C)Nc1nc(C)c(-c2ccnc(Nc3ccc(N)cc3)n2)s1 (centres unmarked) [Example 737, N-(4-{2-[(2-methoxy-1-methylethyl)amino]-4-methyl-1,3-thiazol-5-yl}pyrimidin-2-yl)benzene-1,4-diamine] | 1.68 |
| CC(=O)Nc1ccc(Nc2nccc(-c3sc(C4CC4)nc3C)n2)cc1 [Example 459, N-(4-{[4-(2-cyclopropyl-4-methyl-1,3-thiazol-5-yl)pyrimidin-2-yl]amino}phenyl)acetamide] | 2 |
| CCc1nc(C)c(-c2ccnc(N(C(C)=O)c3cc(OC)c(OC)c(OC)c3)n2)s1 [Example 669, N-[4-(2-ethyl-4-methyl-1,3-thiazol-5-yl)pyrimidin-2-yl]-N-(3,4,5-trimethoxyphenyl)acetamide] | 2.19 |
| Cc1nc(NCC2CCCO2)sc1-c1ccnc(Nc2cccc(Cl)c2)n1 (centres unmarked) [Example 443, N-(3-chlorophenyl)-4-{4-methyl-2-[(tetrahydrofuran-2-ylmethyl)amino]-1,3-thiazol-5-yl}pyrimidine-2-amine] | 2.36 |
| Cc1nc(C)c(-c2ccnc(Nc3ccc(N4CCCC4=O)cc3)n2)s1 [Example 749, 1-(4-{[4-(2,4-dimethyl-1,3-thiazol-5-yl)pyrimidin-2-yl]amino}phenyl)pyrrolidin-2-one] | 1.99 |
| Cc1nc(-c2cccnc2)sc1-c1ccnc(Nc2ccccc2)n1 [Example 715, 4-(4-methyl-2-pyridin-3-yl-1,3-thiazol-5-yl)-N-phenylpyrimidine-2-amine] | 3.04 |
| CCOC(=O)Nc1ccc(Nc2nccc(-c3sc(C(C)C)nc3C)n2)cc1 [Example 796, ethyl-(4-{[4-(2-isopropyl-4-methyl-1,3-thiazol-5-yl)pyrimidin-2-yl]amino}phenyl)carbamate] | 2.18 |
| COCCNc1nc(C)c(-c2ccnc(Nc3ccc(C)c([N+](=O)[O-])c3)n2)s1 [Example 806, 4-{2-[(2-methoxyethyl)amino]-4-methyl-1,3-thiazol-5-yl}-N-(4-methyl-3-nitrophenyl)pyrimidine-2-amine] | 2.17 |

same assay, conditions: logP, values marked *: HPLC on reversed-phase C 18, 40° C., mobile phase 0.1% aqueous formic acid and acetonitrile, linear gradient 10% to 95% acetonitrile

| SMILES | chromatographic logP |
| --- | --- |
| CC(=O)c1ccc(Nc2nccc(-c3sc(C(C)(C)C)nc3C)n2)cc1 [Example 885, 1-(4-{[4-(2-tert-butyl-4-methyl-1,3-thiazol-5-yl)pyrimidin-2-yl]amino}phenyl)ethanone] | 4.22 |
| CCc1nc(C)c(-c2ccnc(Nc3ccc(N(C)C)cc3)n2)s1 [Example 879, N′-[4-(2-ethyl-4-methyl-1,3-thiazol-5-yl)pyrimidin-2-yl]-N,N-dimethylbenzene-1,4-diamine] | 1.56 |
| CCc1nc(C)c(-c2nc(Nc3cc(OC)c(OC)c(OC)c3)ncc2Cl)s1 [Example 907, 5-chloro-4-(2-ethyl-4-methyl-1,3-thiazol-5-yl)-N-(3,4,5-trimethoxyphenyl)pyrimidine-2-amine] | 3.2 |
| COCCCNc1nc(C)c(-c2ccnc(Nc3cccc(NC(C)=O)c3)n2)s1 [Example 853, N-{3-[(4-{2-[(3-methoxypropyl)amino]-4-methyl-1,3-thiazol-5-yl}pyrimidin-2-yl)amino]phenyl}acetamide] | 1.44 |
| Cc1nc(C(C)C)sc1-c1nc(Nc2ccccc2)ncc1Br [Example 904, 5-bromo-4-(2-isopropyl-4-methyl-1,3-thiazol-5-yl)-N-phenylpyrimidine-2-amine] | 4.32 |
| COCCNc1nc(C)c(-c2ccnc(Nc3ccc(Cl)nc3)n2)s1 [Example 872, N-(6-chloropyridin-3-yl)-4-{2-[(2-methoxyethyl)amino]-4-methyl-1,3-thiazol-5-yl}pyrimidine-2-amine] | 1.71 |
| COCCNc1nc(C)c(-c2ccnc(Nc3ccc(F)cc3F)n2)s1 [Example 832, N-(2,4-difluorophenyl)-4-{2-[(2-methoxyethyl)amino]-4-methyl-1,3-thiazol-5-yl}pyrimidine-2-amine] | 1.99 |
| COc1cc(Nc2nccc(-c3sc(C(C)(C)C)nc3C)n2)cc(OC)c1OC [Example 888, 4-(2-tert-butyl-4-methyl-1,3-thiazol-5-yl)-N-(3,4,5-trimethoxyphenyl)pyrimidine-2-amine] | 3.48 |

same assay, conditions: values marked *: HPLC on reversed-phase C 18, 40° C., mobile phase 0.1% aqueous formic acid and acetonitrile, linear gradient 10% to 95% acetonitrile

| SMILES | logP |
| --- | --- |
| CC(=O)c1ccc(Nc2nccc(-c3sc(N(C)C)nc3C)n2)cc1 [Example 867, 1-[4-({4-[2-(dimethylamine)-4-methyl-1,3-thiazol-5-yl]pyrimidin-2-yl}amino)phenyl]ethanone] | 1.9* |
